≈ marks a conversion by molar mass, not a printed value. Records with an inconclusive call do not appear. Calls of active or inactive are those of the source. How the calls were made is not given here.

This assay deals with M. tuberculosis H37Rv growth inhibition. Put plainly: Mycobacterium tuberculosis H37Rv growth inhibition, cell based, confirmatory dose response (AID 1949).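 Further: bacteria grown 7 days with compound before Alamar blue readout.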
For orientation: IC50 means the concentration that inhibits the measured activity by half. For the molecule `Cc1ccc(C(=O)N2CCN(c3ccc(NC(=O)COc4ccccc4Cl)cc3)CC2)cc1`, the half-maximal inhibitory concentration (IC50) is 6.08 µg/mL (≈ 13.1 µM). To `CCCCc1ccc(NC(=O)CSCc2ccc(OC)cc2)cc1` belongs 12.9 µg/mL (≈ 37.5 µM). To `O=C(NC(=S)N1CCCC1)c1ccc(-c2ccccc2)cc1` belongs 1.43 µg/mL (≈ 4.61 µM); to `N#Cc1ccc(NC(=O)C23CC4CC(CC(C4)C2)C3)cc1`, 23.7 µg/mL (≈ 84.6 µM); to `C=CCc1ccccc1OCCCCn1ccnc1`, 3.93 µg/mL (≈ 15.3 µM).

In the case of `O=C(Oc1cccc2cccnc12)c1cccc([N+](=O)[O-])c1`, the IC50 is 10.8 µg/mL (≈ 36.7 µM). To `CC1=Nc2ccccc2N=C(N)C1c1ccc(Cl)cc1` (stereo unspecified) belongs 15 µg/mL (≈ 52.8 µM). Under `CCOC(=O)c1ccc(NC(=S)Nc2ccc(Oc3ccccc3)cc2)cc1` stands 0.39 µg/mL (≈ 0.994 µM); under `COc1cccc(OCCN2CCN(c3ncnc4sc5c(c34)CCCC5)CC2)c1`, 29 µg/mL (≈ 68.2 µM); under `Cc1ccc(/C=C/[N+](=O)[O-])cc1Br`, 239 µg/mL (≈ 987 µM). Under `O=S1(=O)C=C(Sc2nnc(-c3ccccc3)o2)c2ccccc21` stands 0.31 µg/mL (≈ 0.905 µM); under `Cc1cc(C(C)(C)C)ccc1OCCOCCn1ccnc1`, 2.93 µg/mL (≈ 9.69 µM); under `Cc1cc2ncn(CCOc3ccccc3C)c2cc1C`, 6.93 µg/mL (≈ 24.7 µM). `Cc1ccc(-c2csc(-c3ccc(O)cc3)n2)cc1`: the IC50 is 2.69 µg/mL (≈ 10.1 µM). To `O=c1c2ccccc2nc(/C=C/c2ccc(Br)cc2)n1-c1ccc(O)cc1` belongs > 50 µg/mL (inactive). To `COC(=O)c1c(NC(=O)c2cc3ccccc3oc2=O)sc2c1CCC2` belongs 4.29 µg/mL (≈ 11.6 µM). Under `O=[N+]([O-])c1c(Sc2ncnc3ccccc23)ccc2nsnc12` stands 22.2 µg/mL (≈ 65.1 µM). Regarding `Cc1cccc(-c2nnc(SCC(=O)NCCc3ccccc3)o2)c1`, the IC50 was 0.25 µg/mL (≈ 0.707 µM).

With `CCCN1C(=O)c2cccc3cc([N+](=O)[O-])cc(c23)C1=O`, the IC50 is under 0.1 µg/mL. In the case of `O=C(Nc1ccc(Nc2ccccc2)cc1)C(Cl)Cl`, the IC50 was 6.79 µg/mL (≈ 23 µM).

As for `CC1CCCN(Cc2c(O)ccc3c(=O)c(-c4nc5ccccc5s4)c(N)oc23)C1` (stereo unspecified), the IC50 is 23.6 µg/mL (≈ 55.9 µM).

Take `O=C(Nc1ccc2oc(-c3cccc4ccccc34)nc2c1)c1cncc(Br)c1`: the IC50 was 2.72 µg/mL (≈ 6.12 µM). Under `COc1cc(NC(=S)N2CCN(C)CC2)cc(OC)c1` stands > 50 µg/mL (inactive); under `CC(C)CCNC(=O)C(=O)Nc1ccccc1Cl`, 0.84 µg/mL (≈ 3.13 µM). To `O=C(Nc1ncnc2sc3c(c12)CCCC3)c1ccc(F)cc1` belongs 0.52 µg/mL (≈ 1.59 µM). Under `O=C(Nc1nnc(C2CCCCC2)s1)c1sc2ccccc2c1Cl` stands 0.37 µg/mL (≈ 0.979 µM). `CCOc1cc2c3c(c1)C1(C(=O)N3C(C)(C)C=C2C)C(C#N)=C(N)Oc2cc(O)ccc21` (stereo unspecified): the IC50 was 3.09 µg/mL (≈ 7.19 µM). Under `CC(NC(=O)c1ccc([N+](=O)[O-])o1)C12CC3CC(CC(C3)C1)C2` (stereo unspecified) stands 4.46 µg/mL (≈ 14 µM); under `CCOC(=O)c1c(NC(=O)COc2ccc(C(C)C)cc2)sc2c1CCC2`, 2.77 µg/mL (≈ 7.15 µM). For `O=[N+]([O-])/C=C/c1ccc(-c2ccccc2C(F)(F)F)o1`, the IC50 is 4.61 µg/mL (≈ 16.3 µM). Under `O=C(Nc1ccc(C(F)(F)F)cc1)Nc1cccc(F)c1` stands 0.76 µg/mL (≈ 2.55 µM). Under `COc1ccc(-c2csc(Nc3ncccc3C)n2)cc1` stands 24.5 µg/mL (≈ 82.5 µM); under `Cc1ccccc1Nc1nc(-c2ccccn2)cs1`, under 0.1 µg/mL. For the molecule `Cc1cc(C)c2[nH]c3ccccc3c2n1`, the IC50 was 1.3 µg/mL (≈ 6.62 µM).

For the molecule `C#CCOc1c(Cl)cc(/C=C/[N+](=O)[O-])cc1OC`, the IC50 is 29.4 µg/mL (≈ 110 µM). To `COc1ccc(N2CCN(c3ncnc4sc5c(c34)CCCC5)CC2)cc1` belongs > 50 µg/mL (inactive); to `Cc1cc(C(=O)NCC23CC4CC(CC(C4)C2)C3)ccc1[N+](=O)[O-]`, 0.42 µg/mL (≈ 1.28 µM); to `Oc1ccc(/C=C/c2nc(-c3ccccc3O)n(-c3ccccc3)n2)cc1`, 5.63 µg/mL (≈ 15.8 µM). To `CC(C)(C)c1ccc(-c2nn3c(Cc4ccccc4)nnc3s2)cc1` belongs > 50 µg/mL (inactive). Under `O=C(Nc1nc(-c2ccccc2)c(-c2ccccc2)o1)c1ccc(F)cc1` stands under 0.1 µg/mL; under `CCOC(=O)COc1ccc(S(=O)(=O)Nc2ccc(C)c(C)c2)cc1`, 1.03 µg/mL (≈ 2.83 µM).

For the molecule `O=C1c2cccc3c([N+](=O)[O-])ccc(c23)C(=O)N1Cc1ccccc1`, the IC50 was 46 µg/mL (≈ 138 µM). Under `CCOC(=O)c1cc(-c2ccccc2)sc1NC(=S)NC1CCN(Cc2ccccc2)CC1` stands 0.77 µg/mL (≈ 1.61 µM); under `COC(=O)c1ccc2nc(C)cc(Nc3ccc(OCc4ccccc4)cc3)c2c1`, 1.2 µg/mL (≈ 3.01 µM). To `COc1ccc(CCNc2nc(-c3ccccn3)cs2)cc1OC` belongs 0.72 µg/mL (≈ 2.11 µM). To `CCC(=O)c1ccc(OCC(O)CN2CCN(c3ccc(C)cc3C)CC2)cc1` (stereo unspecified) belongs > 50 µg/mL (inactive); to `COC(=O)COc1ccc(C2CCCCC2)cc1`, 1.46 µg/mL (≈ 5.88 µM). In the case of `c1ccc(-n2nnnc2Oc2cccc3cccnc23)cc1`, the IC50 was 5.68 µg/mL (≈ 19.6 µM). Take `O=C1c2ccccc2C(=O)c2c1nc1n2CCCC1`: the IC50 is > 50 µg/mL (inactive). To `O=C(CSc1nnc(-c2ccncc2)o1)Nc1ccc(Cl)cn1` belongs 5.59 µg/mL (≈ 16.1 µM); to `CCOC(=O)c1c(-c2ccc(C)o2)csc1NC(=S)NC(=O)N(C)C`, 1.85 µg/mL (≈ 4.85 µM).
